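The concentration for 50% growth inhibition is given as GI50. TGI denotes the concentration required for complete inhibition of growth.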
Legend:
Assay in all cases: NCI anticancer screen, dose series, 384-well format
MALME-3M melanoma = tested on: MALME-3M melanoma
CCRF-CEM leukemia = tested on: CCRF-CEM leukemia
BT-549 breast = tested on: BT-549 breast
UACC-62 melanoma = tested on: UACC-62 melanoma
SF-295 CNS = tested on: SF-295 CNS
HCT-116 colon = tested on: HCT-116 colon
MOLT-4 leukemia = tested on: MOLT-4 leukemia
NCI-H522 lung = tested on: NCI-H522 lung
K-562 leukemia = tested on: K-562 leukemia
RPMI-8226 leukemia = tested on: RPMI-8226 leukemia
SN12C renal = tested on: SN12C renal
HCT-15 colon = tested on: HCT-15 colon
CAKI-1 renal = tested on: CAKI-1 renal
HL-60(TB) leukemia = tested on: HL-60(TB) leukemia
SF-539 CNS = tested on: SF-539 CNS
786-0 renal = tested on: 786-0 renal
HOP-62 NSCLC = tested on: HOP-62 NSCLC
RXF 393 renal = tested on: RXF 393 renal
MDA-MB-231 breast = tested on: MDA-MB-231 breast
SNB-75 CNS = tested on: SNB-75 CNS
SF-268 CNS = tested on: SF-268 CNS
LOX IMVI melanoma = tested on: LOX IMVI melanoma
SW-620 colon = tested on: SW-620 colon
MDA-MB-468 breast = tested on: MDA-MB-468 breast
SK-MEL-2 melanoma = tested on: SK-MEL-2 melanoma
OVCAR-8 ovarian = tested on: OVCAR-8 ovarian
M14 melanoma = tested on: M14 melanoma
SNB-19 CNS = tested on: SNB-19 CNS
U251 glioblastoma = tested on: U251 glioblastoma

In the case of `O=NN(CCCl)C(=O)NCCCl`, the GI50 (MALME-3M melanoma) is reported as 75.9 µM, the GI50 (CCRF-CEM leukemia) is reported as 22.3 µM and the TGI (CCRF-CEM leukemia) is reported as 40.9 µM. The GI50 (BT-549 breast) was 36 µM, the GI50 (UACC-62 melanoma) was 19.4 µM and the GI50 (SF-295 CNS) was 25.4 µM. It also gave a TGI (SF-295 CNS) of 73 µM, a GI50 (HCT-116 colon) of 49.8 µM and a GI50 (MOLT-4 leukemia) of 15.6 µM. The TGI (MOLT-4 leukemia) was 29.5 µM, the GI50 (NCI-H522 lung) was 32.4 µM and the GI50 (K-562 leukemia) was 46.5 µM. For the same compound, the GI50 (RPMI-8226 leukemia) was 20 µM, the TGI (RPMI-8226 leukemia) was 48.7 µM and the GI50 (SN12C renal) was 74.1 µM. For the same compound, the GI50 (HCT-15 colon) was 46.5 µM, the GI50 (CAKI-1 renal) was 81.2 µM and the GI50 (HL-60(TB) leukemia) was 15.1 µM. For the same compound, the TGI (HL-60(TB) leukemia) was 28.5 µM, the GI50 (SF-539 CNS) was 24.4 µM and the TGI (SF-539 CNS) was 90.1 µM. For the same compound, the GI50 ([…]-0 renal) was 43.3 µM, the GI50 (HOP-62 NSCLC) was 34.6 µM and the GI50 (RXF 393 renal) was 56.9 µM. It also gave a GI50 (MDA-MB-231 breast) of 55.9 µM, a GI50 (SNB-75 CNS) of 26.7 µM and a GI50 (SF-268 CNS) of 15.9 µM. It also gave a GI50 (LOX IMVI melanoma) of 24.2 µM, a GI50 (SW-620 colon) of 54.2 µM and a GI50 (MDA-MB-468 breast) of 23.7 µM. The GI50 (SK-MEL-2 melanoma) was 61.5 µM, the GI50 (OVCAR-8 ovarian) was 97.8 µM and the GI50 (M14 melanoma) was 69.9 µM. It also gave a GI50 (SNB-19 CNS) of 56.2 µM and a GI50 (U251 glioblastoma) of 23.9 µM.
